“Also recorded” adds a separate entry of the source. Read-outs that look alike come from different tables or passages of the source. One block for each compound: values may come before it.
Legend:
[1] = tested on: primary polyclonal human Vγ9Vδ2 T cells; test: TNFα release (cytokine release) assay; type: cell-based; details: for relative potency in words: TNFα release assay, comparison of the tested compounds
Method: Cells (primary polyclonal human Vγ9Vδ2 T cells which have been expanded in vitro and stored frozen at day 12-15 of expansion) are thawed and rinsed twice and centrifuged. Upon elimination of supernatant and resuspension of cells, the cells are incubated for 24 h at 37° C. in the presence of IL2 100 IU/ml (final concentration). The cells are washed and centrifuged, following which the supernatant is eliminated and the cells are resuspended and adjusted to the adequate final concentration. The cells are added to the wells of a 96-well plate.
To one row of wells is added a standard dilution series of (R,S)-3-(bromomethyl)-3-butanol-1-yl-diphosphate (R,S-BrHPP). Compounds to be tested, in this case (E)-4-hydroxy-3-methyl-2-butenyl pyrophosphate ((E)-HDMAPP) and the HAngelylPP and HTiglylPP compounds of the Angelyl/Tiglyl phosphoester series are added to experimental wells, after several dilutions.
Full plates are incubated 24 hours at 37° C. for stimulation of the γδ cells with the test compound and reference compounds, in this case HAngelylPP and HTiglylPP, (R,S)—BrHPP and (E) —HDMAPP, as further described below. After this time, 100 μl of culture supernatant is taken for TNFα dosage. Measurement of the released TNFα dosage is performed as described by the manufacturer's instruction in the TNFα enzyme immunoassay kit (ref. 11121, Immunotech—Beckman Coulter). OD at 405 nm is read, the OD being proportional to the concentration of released TNFα in the culture supernatant. The data are processed with the Excel software to compare concentration of test compound versus concentration of TNFα and for the calculation of the EC50 for each test compound.
The bioactivity of the compound HAngelylPP was assessed using a TNFα release assay as described above. Compounds (R,S)—BrHPP and (E)-HDMAPP were included for purpose of comparison. […] As will be appreciated, any other suitable assays such as cell amplification may be used in assessing compounds.

γδ T cells = details: reported at best (Wilhelm et al., 2003); cited from earlier work

Compound: (E)-4-hydroxy-2-methylbut-2-enyl pyrophosphate [HTiglylPP]
relative potency in words [1]: highly potent | EC50 ([1]; TNFα release, 24 hours stimulation at 37° C., relative screening test (FIG. 3), read-out: in vitro EC50): 15 nM

EC50 ([1]; Homo sapiens, T-cell, TNFα release, 24 hours stimulation at 37° C., relative screening test (FIG. 3), read-out: in vitro EC50): 37.7 nM | EC50 ([1]; Homo sapiens, T-cell, prior assays with calibrated cells using a (R,S)-BrHPP-standard composition, read-out: EC50): ~15 nM
Compound: CC(O)(CBr)CCOP(=O)(O)OP(=O)(O)O (racemic) [(R,S)-BrHPP, (R,S)-3-(bromomethyl)-3-butanol-1-yl-diphosphate, reference compound]

Compound: (Z)-4-hydroxy-2-methylbut-2-enyl pyrophosphate [HAngelylPP]
relative potency in words [1]: highly potent; also recorded: the most potent compound of those tested

Compound: NCCC(O)(P(=O)(O)O)P(=O)(O)O [pamidronate]
increase in γδ T cell count (γδ T cells): ≤ 2 fold
